The source of these data is patent US5166208A, “Fredericamycin A derivatives” (Boston College, priority 1991, dated 1992).

Values after ≈ are worked out from the molar mass of the structure shown. Where two headings read alike, the source gives them in different places.

One data set has as its system human lung (A549). In words: In vitro microdilution inhibition, human lung A549. It is filed as cell-based. As to conditions: A549, 72 hours, 50% of cells killed. In general terms: Broth dilution looks for growth in wells or tubes with falling amounts of substance.
A further data set concerns p388 murine leukemia. In words: In vivo activity against p388 murine leukemia in an acute mouse model. Conditions: for AWC (average weight change per mouse): before treatment to day five. The procedure: CDF1 mice of both sexes weighing between 16 and 25 gm. were used, with a 2 gm. weight range and same sex and source used per experiment. BDF1 mice also were used with the same weight, sex and source parameters. Control and test animals were injected interperitoneally with suspension of 1×10^6 p388 murine leukemia cells (0.5 mL dose) on day 0. Groups of 4-6 mice were used for each dosage amount they were treated with 5 doses on day one. A group of ten saline treated control mice was included in each set of experiments. A 30 day protocol was employed with mean survival time in days being determined for each group of mice with the number of survivors at the end of the 30 day period being noted. The mice were weighed before treatment and again on day five. The values listed for average weight change (AWC) is the average weight change per mouse at the specified dose. The change in weight was taken as a measure of drug toxicity. A loss in weight of up to 2 grams is not considered excessive. The results were determined in terms of % T/C which is the ratio of the mean survival time of the treated group to the mean survival time of the saline treated group times 100.

The subject of data set [1] is human colon tumor with low topo II activity (HCTVP). In words: In vitro microdilution inhibition, HCTVP. Conditions: 72 hours, 50% of cells killed. Type of data set: cell-based.
Data set [2] deals with resistant human lung with low topo II activity (A549-VP). In words: In vitro microdilution inhibition, resistant human lung A549-VP. It is filed as cell-based. Conditions: A549VP, 72 hours, 50% of cells killed.
Data set [3] deals with human colon tumor (HCT116). Nature of the data set: In vitro microdilution inhibition, HCT116. As to conditions: HCT-116, 72 hours, 50% of cells killed. Type of data set: cell-based.
Data set [4] concerns human colon carcinoma cell line (Moser). Nature of the data set: In vitro microdilution inhibition, Moser. As to conditions: 72 hours, 50% of cells killed. Type of data set: cell-based. From the text:
As shown in Table III the compounds of the present invention exert an in vitro antitumor effect. The following cells lines were employed: human lung (A549); resistant human lung with low topo II activity (A549-VP); murine melanoma (B16); human colon tumor (HCT116); human colon tumor with elevated p170 levels (HCTVM); human colon tumor with low topo II activity (HCTVP); and another human colon carcinoma cell line (Moser). In the Table, the designation "NT" indicates the compound was not tested against the specified cell line. The cell lines were maintained in continuous culture at 37°, 5% CO2 and high humidity. Cells were harvested in log phase growth and suspended at concentration of 25,000 cells/mL. A […] aliquot was then added to each well (i.e., 3,750 cells per well) of a 96-well flat bottom plate and the cells were allowed to attach over a 24 hour period. After this 24 hour incubation, a 50 μL sample of the specified compound was added to the first (top) well of each column, and the remaining wells of each column serially diluted, 1:4, and allowed to incubate for 72 hours at 37° C., 5% CO2 and high humidity. Following incubation, 50 μL of freshly prepared stain solution was added to each well. After a 3 hour incubation at room temperature, absorbance was read at 450 nm on a microplate reader to determine the compound concentration at which 50% of the cells were killed, such concentration referred to as the "IC50 ".

Another data set has as its system murine melanoma (B16). Nature of the data set: In vitro microdilution inhibition, B16. Type of data set: cell-based. Conditions: Mus musculus; B16, 72 hours, 50% of cells killed.
The test system of data set [5] is human colon tumor with elevated p170 levels (HCTVM). Nature of the data set: In vitro microdilution inhibition, HCTVM. Conditions: 72 hours, 50% of cells killed. Type of data set: cell-based.
The subject of a further data set is L1210 mouse leukemia. As to conditions: in vitro; cited from earlier work.
A further data set deals with p388 mouse leukemia. Conditions: in vitro; cited from earlier work.

A word on the IC50: it is the midpoint of a concentration-inhibition curve. Low readings indicate higher potency, high ones lower potency.

Take `CCCCCc1cc2cc3c(c(OCOC)c2c(OC)n1)C1(CC3)C(=O)c2c(O)c3c(c(O)c2C1=O)C(=O)C=CC3=O` [Example 7, 6',7'-Dihydro-1-methoxy-9'-(methoxymethoxy)-3'-(n-pentyl)-spiro[2H-benz[f]indene-2,8'-[8H]cyclopent[g]isoquinoline]-1,3,5,8-tetrone]: the 50% inhibitory concentration (IC50) with human lung (A549) was determined as 5 µg/mL (≈ 8.75 µM); in [1], 1.2 µg/mL (≈ 2.1 µM); in data set [2], 8.5 µg/mL (≈ 14.9 µM); in [3], 1.2 µg/mL (≈ 2.1 µM); in [4], 5.9 µg/mL (≈ 10.3 µM); in the data set with murine melanoma (B16), 7 µg/mL (≈ 12.2 µM). Also, the “AWC (average weight change per mouse)” value is on record as -2.8 in the data set with p388 murine leukemia (CDF1 (female only), 5 mg/kg) and -3.8 in the data set on p388 murine leukemia (CDF1 (female only), 15 mg/kg). Besides, the “% T/C (mean survival time treated/control)” value in the data set with p388 murine leukemia (CDF1 (female only), 45 mg/kg) is listed as “Toxic”. In addition, in the data set on p388 murine leukemia (Mus musculus, P388, 720 h, CDF1 (female only), 5 mg/kg, read-out: % T/C (mean survival time treated/control)), the response vs control in vivo at 5 mg/kg came to 150%. Moreover, in the data set on p388 murine leukemia (Mus musculus, P388, 720 h, CDF1 (female only), 15 mg/kg, read-out: % T/C (mean survival time treated/control)), the response vs control in vivo at 15 mg/kg came out at 150%.
`CCCCCc1cc2cc3c(c(O)c2c(=O)[nH]1)C1(CC3)C(=O)c2c(O)c3c(c(O)c2C1=O)C(=O)C=CC3=O` [Example 8, 2',6',7'-Trihydro-4,9,9'-trihydroxy-3'-(n-pentyl)-spiro[2H-benz[f]-indene-2,8'-[8H]cyclopent[g]isoquinoline]-1,1',3,5,8-pentone]: the half-maximal inhibitory concentration (IC50) worked out at 24.5 µg/mL (≈ 47.7 µM) with human lung (A549); 26.5 µg/mL (≈ 51.6 µM) in data set [2]; 14.5 µg/mL (≈ 28.2 µM) in [3]; 18.3 µg/mL (≈ 35.6 µM) in data set [4]; 18 µg/mL (≈ 35.1 µM) in the data set on murine melanoma (B16). Besides, the “AWC (average weight change per mouse)” value in the data set on p388 murine leukemia (BDF1 (female only), 5 mg/kg) is reported as 1.0; in the data set on p388 murine leukemia (BDF1 (female only), 15 mg/kg) it was -1.5; with p388 murine leukemia (BDF1 (female only), 45 mg/kg), -2.8. Further, the response vs control in vivo at 5 mg/kg with p388 murine leukemia (Mus musculus, P388, 720 h, BDF1 (female only), 5 mg/kg, read-out: % T/C (mean survival time treated/control)) was 125%. For the same compound, in the data set with p388 murine leukemia (Mus musculus, P388, 720 h, BDF1 (female only), 15 mg/kg, read-out: % T/C (mean survival time treated/control)), the response vs control in vivo at 15 mg/kg was 135%. For the same compound, the response vs control in vivo at 45 mg/kg in the data set with p388 murine leukemia (Mus musculus, P388, 720 h, BDF1 (female only), 45 mg/kg, read-out: % T/C (mean survival time treated/control)) is 145%.
With `CNC1=CC(=O)c2c(O)c3c(c(O)c2C1=O)C(=O)C1(CCc2cccc(OCOC)c21)C3=O` (centres unmarked) [Example 12, 2',3'-Dihydro-6-methylamino-7'-(methoxymethoxy)-1H-indene-1'-spiro-2-[4,9-dihydroxy-2H-benz[f]-indene-1,3,5,8-tetrone]], the IC50 is below 0.03 µg/mL in the data set with human lung (A549); 0.03 µg/mL (≈ 0.0668 µM) in data set [1]; 0.05 µg/mL (≈ 0.111 µM) in data set [2]; 0.03 µg/mL (≈ 0.0668 µM) in data set [3]; 0.05 µg/mL (≈ 0.111 µM) in data set [5]; 0.03 µg/mL (≈ 0.0668 µM) in [4]. Moreover, the IC50 in the data set with murine melanoma (B16) amounted to 0.03 µg/mL (≈ 0.0668 µM).
In the case of `COCOc1cccc2c1C1(CC2)C(=O)c2c(O)c3c(c(O)c2C1=O)C(=O)C(Nc1cccc(C(=O)O)c1)=CC3=O` (centres unmarked) [Example 20, 2',3'-Dihydro-7'-(methoxymethoxy)-1H-indene-1,-spiro-2-[6-(3-carboxyanilino)-4,9-dihydroxy-2H-benz[f]indene-1,2,5,8-tetrone]], the IC50 (with human lung (A549); in data set [1]; in [2]; in data set [3]; in data set [5]; in data set [4]) was above 16 µg/mL in each case. The compound also had a half-maximal inhibitory concentration (IC50) with murine melanoma (B16) above 16 µg/mL.
`C/C=C/C=C/c1cc2cc3c(c(O)c2c(=O)[nH]1)C1(CC3)C(=O)c2c(O)c3c(c(O)c2C1=O)C(=O)C(OC)=CC3=O` (centres unmarked) [fredericamycin A]: the cytotoxicity result in the data set on L1210 mouse leukemia is “comparable to doxorubicin and actinomycin”; with p388 mouse leukemia, “comparable to doxorubicin and actinomycin”.
